# Source: patent US6825191B2, “Benzodiazepine derivatives” (Ajinomoto Co., Inc., priority 2000, dated 2004)
# How the values were obtained:
# [1] = molecular target: T1, human thrombin (Homo sapiens, UniProt P00734); assay: Determination of thrombin-inhibiting activity (chromogenic substrate S-2238, initial rate); assay type: biochemical; conditions: negative logarithm of concentration inhibiting 50% of initial rate, tris hydrochloride buffer pH 8.4, room temperature; for IC50: read-out: Thrombin-inhibiting activity (pIC50) (converted)
# T1 construct: solution of human thrombin (a product of SIGMA Co.); purchased SIGMA Co
# Description: Determination of Thrombin-inhibiting Activity
# 130 μL of 100 mM tris hydrochloride buffer adjusted to pH 8.4 was added to 10 μl of an aqueous solution of a test compound. Then 10 μl of a solution of human thrombin (a product of SIGMA Co.) adjusted to 2 units/ml with tris hydrochloride buffer of pH 8.4 was added to the resultant mixture. After the incubation at room temperature for 10 minutes, 50 μl of a solution of D-phenylalanine-L-pipecolyl-L-arginine-P-nitroanilide dihydrochloride (S-2238; a product of Daiichi Kagaku Yakuhin Co.) adjusted to 0.4 mM with tris hydrochloride buffer of pH 8.4 was added thereto. The absorbance was determined and then the initial reaction rate was determined. A control was prepared in the same manner as that described above except that the solution of the compound to be tested was replaced with 10 μl of tris hydrochloride buffer adjusted to pH 8.4. The absorbance was determined with MICROPLATE READER Model 3550-UV (a product of BIO RAD) at a wave length of 405 nm at intervals of 15 seconds for 16 minutes. The negative logarithm (pIC50) of a concentration of the test compound which inhibits 50% of the activity (initial rate) of the thrombin in the absence of the test compound was determined, and employed as the index of the activity of inhibiting thrombin.
# [2] = molecular target: T2, activated human blood coagulation factor X (Homo sapiens, UniProt P00742); assay: Determination of activity of inhibiting the activated blood-coagulation factor X (chromogenic substrate, initial rate); assay type: biochemical; conditions: negative logarithm of concentration inhibiting 50% of initial rate, tris hydrochloride buffer pH 8.4, room temperature; for IC50: read-out: Activity of inhibiting activated blood coagulation factor X (pIC50) (converted)
# T2 construct: purchased Enzyme Research Co
# T2 sequence (P00742 235-488 limits assumed): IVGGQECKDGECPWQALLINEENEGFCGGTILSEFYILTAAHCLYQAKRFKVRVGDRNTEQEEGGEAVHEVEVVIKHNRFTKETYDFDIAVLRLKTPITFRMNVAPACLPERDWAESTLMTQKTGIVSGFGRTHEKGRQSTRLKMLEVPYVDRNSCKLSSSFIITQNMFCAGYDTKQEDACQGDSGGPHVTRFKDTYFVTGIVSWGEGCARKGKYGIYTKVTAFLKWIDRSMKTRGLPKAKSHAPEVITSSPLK
# T2 sequence (P00742 41-179 partner limits assumed): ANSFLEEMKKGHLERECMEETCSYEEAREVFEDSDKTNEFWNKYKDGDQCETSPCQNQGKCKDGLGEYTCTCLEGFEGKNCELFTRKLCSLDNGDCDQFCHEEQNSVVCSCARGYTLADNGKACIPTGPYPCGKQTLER
# Description: Determination of Activity of inhibiting the Activated Blood-coagulation Factor X
# 130 μl of 100 mM tris hydrochloride buffer adjusted to pH 8.4 was added to 10 μl of an aqueous solution of a compound to be tested. Then 10 μl of a 0.5 unit/ml solution of activated human blood coagulation factor X (a product of Enzyme Research Co.) in tris hydrochloride buffer of pH 8.4 was added to the resultant mixture. After the incubation at room temperature for 10 minutes, 50 μl of a solution of N-benzoyl-L-isoleucyl-L-glutamyl-glycyl-L-arginyl-P-nitroanilide hydrochloride (a product of Peptide Institute Inc.) adjusted to 0.8 mM with tris hydrochloride (pH 8.4) was added thereto. The a absorbance was determined and then the initial reaction rate was determined. A control was prepared in the same manner as that described above except that the solution of the compound to be tested was replaced with 10 μl of tris hydrochloride buffer adjusted to pH 8.4. The absorbance was determined with MICROPLATE READER Model 3550-UV (a product of BIO RAD) at a wave length of 405 nm at intervals of 15 seconds for 16 minutes.
# [3] = system: blood plasma; assay: Determination of blood anticoagulating activity by prothrombin time (PT) determination method; assay type: biochemical, human; conditions: negative logarithm of concentration which elongated PT of the control to twice as long; blood plasma of healthy people
# Description: Determination of Blood Anticoagulating Activity
# The blood anticoagulating activity was determined by a prothrombin time (PT) determination method. The PT was determined as follows: The blood was taken from healthy people. 3.8% aqueous trisodium citrate solution was added to the blood in a volume ratio of 1:10. The blood plasma was separated by the centrifugation. 5 μl of DMSO solution containing a test compound was added to 45 μl of the blood plasma. After the incubation apt room temperature for 2 minutes, a test tube containing the blood plasma solution was placed in Sysmex CA-3000 fully automatic blood coagulation determination device (a product of Toa Medical Electronics Co., Ltd), and incubated at 37° C. for 3 minutes. 100 μl of Sysmex PT II (rabbit brain tissue thromboplastin, 13.2 mM calcium chloride; a product of Toa Medical Electronics Co., Ltd) was fed into the test tube. PT was automatically determined with the device. A sample containing 5 μl of DMSO in place of the solution of the test compound was used as the control. The negative logarithm (pPT2) of the concentration of the test compound which elongated PT of the control to the twice as long was determined, and employed as the index of the blood anticoagulating activity.
Thrombin-inhibiting activity (pIC50) [1],Activity of inhibiting activated blood coagulation factor X (pIC50) [2],IC50 [1] [µM],IC50 [2] [µM],Compound,Human blood anticoagulating activity (pPT2) [3]
<4.0,6.5,,,"CCOC(=O)c1ccc2c(c1)N(Cc1ccc(C3=NCCN3C)cc1)C(=O)CN(C(=O)c1ccc(Cl)cc1)C2.O=C(O)C(F)(F)F [Compd. of Ex. 204, ethyl 4-(4-chlorobenzoyl)-2-oxo-1-[4-(1-methyl-4,5-dihydro-1H-imidazol-2-yl)benzyl]-2,3,4,5-tetrahydro-1H-benzoyl[e][1,4]diazepine-8-carboxylate trifluoroacetate]",5.2
,,> 100,0.2,"CCOC(=O)c1ccc2c(c1)N(Cc1ccc(C3=[N+](C)CCN3C)cc1)C(=O)CN(C(=O)c1ccc(Cl)cc1)C2.O=C([O-])C(F)(F)F [Compd. of Ex. 206, 2-[4-((4-(4-chlorobenzoyl)-8-(ethoxycarbonyl)-2-oxo-2,3,4,5-tetrahydro-1H-1,4-benzodiazepin-1-yl)methyl)phenyl]-1,3-dimethyl-4,5-dihydro-1H-imidazol-3-ium trifluoroacetate]",5.5
,,> 100,0.0316,"CN1CC[N+](C)=C1c1ccc(CN2C(=O)CN(C(=O)c3ccc(Cl)cc3)Cc3c(Cl)cccc32)cc1.O=C([O-])C(F)(F)F [Compd. of Ex. 207, 6-chloro-4-(4-chlorobenzoyl)-1-[4-(1,3-dimethyl-4,5-dihydro-1H-imidazol-3-ium-2-yl)benzyl]-1,3,4,5-tetrahydro-benzo[e][1,4]diazepin-2-on trifluoroacetate]",5.7
